Source: patent US20230167127A1, “COMPOUNDS AND THEIR USE IN THE TREATMENT OF BACTERIAL INFECTION” (Hoffmann-La Roche Inc., priority 2020, published 2023)
Where a name gives a salt, the structure may show the parent alone.

System: Escherichia coli ATCC 25922
Test: 50% growth inhibitory concentration (IC50) determination, Iso-Sensitest broth dilution
Assay type: cell-based
Details: Escherichia coli, ATCC25922, 16 h, strain Escherichia coli ATCC 25922; 10-point broth dilution, optical density at 600 nm over 16 h; read-out: Escherichia coli growth inhibition IC50
How it was run: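 10-point twofold Iso-Sensitest broth dilution (e.g. 50 to 0.097 μM final) with DMSO stocks, incubated at 35±2° C. Growth followed by OD 600 nm every 20 min over 16 h; IC50 derived from growth inhibition during logarithmic phase.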

Cc1c(OCC2CNC(=O)CN2)nc(C#N)c2c1CC(CN1CCC3(CC1)CN(c1ccc4c(n1)NC(=O)CO4)C(=O)O3)C2 (stereo not drawn) [Example 220, 4-methyl-6-((2-oxo-3-(3-oxo-3,4-dihydro-2H-pyrido[3,2-b][1,4]oxazin-6-yl)-1-oxa-3,8-diazaspiro[4.5]decan-8-yl)methyl)-3-((5-oxopiperazin-2-yl)methoxy)-6,7-dihydro-5H-cyclopenta[c]pyridine-1-carbonitrile]
IC50: 319 nM

CNC(=O)COc1nc(C#N)c2c(c1C)CC(CNCCC1CN(c3ccc4c(n3)NC(=O)CO4)C(=O)O1)C2 (stereo not drawn) [Example 221, 2-((1-Cyano-4-methyl-6-(((2-(2-oxo-3-(3-oxo-3,4-dihydro-2H-pyrido[3,2-b][1,4]oxazin-6-yl)oxazolidin-5-yl)ethyl)amino)methyl)-6,7-dihydro-5H-cyclopenta[c]pyridin-3-yl)oxy)-N-methylacetamide]
IC50: 302 nM

Cc1c(OCC(=O)NC(C)C)nc(C#N)c2c1CC(CNCCC1CN(c3ccc4c(n3)NC(=O)CO4)C(=O)O1)C2 (stereo not drawn) [Example 222, 2-((1-cyano-4-methyl-6-(((2-(2-oxo-3-(3-oxo-3,4-dihydro-2H-pyrido[3,2-b][1,4]oxazin-6-yl)oxazolidin-5-yl)ethyl)amino)methyl)-6,7-dihydro-5H-cyclopenta[c]pyridin-3-yl)oxy)-N-isopropylacetamide]
IC50: 717 nM

CNC(=O)COc1ncc2c(c1C)CC(CNCCC1CN(c3ccc4c(n3)NC(=O)CO4)C(=O)O1)C2 (stereo not drawn) [Example 223, N-methyl-2-((4-methyl-6-(((2-(2-oxo-3-(3-oxo-3,4-dihydro-2H-pyrido[3,2-b][1,4]oxazin-6-yl)oxazolidin-5-yl)ethyl)amino)methyl)-6,7-dihydro-5H-cyclopenta[c]pyridin-3-yl)oxy)acetamide]
IC50: 389 nM

Cc1c(OCC(=O)NC(C)C)ncc2c1CC(CNCCC1CN(c3ccc4c(n3)NC(=O)CO4)C(=O)O1)C2 (stereo not drawn) [Example 224, N-isopropyl-2-((4-methyl-6-(((2-(2-oxo-3-(3-oxo-3,4-dihydro-2H-pyrido[3,2-b][1,4]oxazin-6-yl)oxazolidin-5-yl)ethyl)amino)methyl)-6,7-dihydro-5H-cyclopenta[c]pyridin-3-yl)oxy)acetamide]
IC50: 791 nM

CCOC(=O)c1cn(CC)c2c3c(c(F)cc2c1=O)CC(CNCCC1CN(c2ccc4c(n2)NC(=O)CO4)C(=O)O1)C3 (stereo not drawn) [Example 225, ethyl 1-ethyl-6-fluoro-4-oxo-8-[[2-[2-oxo-3-(3-oxo-4H-pyrido[3,2-b][1,4]oxazin-6-yl)-1,3-oxazolidin-5-yl]ethylamino]methyl]-8,9-dihydro-7H-cyclopenta[h]quinoline-3-carboxylate]
IC50: 547 nM

O=C1COc2ccc(N3CC(CCNCC4(O)Cc5cccc(Cl)c5C4)OC3=O)nc2N1 (stereo not drawn) [Example 232, 6-[5-[2-[(4-Chloro-2-hydroxy-1,3-dihydroinden-2-yl)methylamino]ethyl]-2-oxo-1,3-oxazolidin-3-yl]-4H-pyrido[3,2-b][1,4]oxazin-3-one; formic acid]
IC50: 495 nM

N#Cc1cccc2c1CC(CN(CCN)CCC1CN(c3ccc4c(n3)NC(=O)CO4)C(=O)O1)C2 (stereo not drawn) [Example 233, 2-[[2-Aminoethyl-[2-[2-oxo-3-(3-oxo-4H-pyrido[3,2-b][1,4]oxazin-6-yl)-1,3-oxazolidin-5-yl]ethyl]amino]methyl]-2,3-dihydro-1H-indene-4-carbonitrile; formic acid]
IC50: 942 nM

Cc1nc(OC[C@H](N)CO)c(C)c2c1CC(CNCCC1CN(c3ccc4c(n3)NC(=O)CO4)C(=O)O1)C2 (stereo partly drawn) [Example 234, 6-[5-[2-[[3-[(2R)-2-Amino-3-hydroxypropoxy]-1,4-dimethyl-6,7-dihydro-5H-cyclopenta[c]pyridin-6-yl]methylamino]ethyl]-2-oxo-1,3-oxazolidin-3-yl]-4H-pyrido[3,2-b][1,4]oxazin-3-one]
IC50: 212 nM

Cc1c(OC[C@H](N)CO)nc(C#N)c2c1CC(CNCCC1CN(c3ccc4c(n3)NC(=O)CO4)C(=O)O1)C2 (stereo partly drawn) [Example 235, 3-[(2R)-2-Amino-3-hydroxypropoxy]-4-methyl-6-[[2-[2-oxo-3-(3-oxo-4H-pyrido[3,2-b][1,4]oxazin-6-yl)-1,3-oxazolidin-5-yl]ethylamino]methyl]-6,7-dihydro-5H-cyclopenta[c]pyridine-1-carbonitrile]
IC50: 196 nM

N#Cc1cc(OC[C@H](N)CO)cc2c1CC(CNCCC1CN(c3ccc4c(n3)NC(=O)CO4)C(=O)O1)C2 (stereo partly drawn) [Example 236, 6-[(2R)-2-Amino-3-hydroxypropoxy]-2-[[2-[2-oxo-3-(3-oxo-4H-pyrido[3,2-b][1,4]oxazin-6-yl)-1,3-oxazolidin-5-yl]ethylamino]methyl]-2,3-dihydro-1H-indene-4-carbonitrile]
IC50: < 97.7 nM

N[C@H](CO)COc1ncc2c(c1Cl)CC(CNCCC1CN(c3ccc4c(n3)NC(=O)CO4)C(=O)O1)C2 (stereo partly drawn) [Example 237, 6-[5-[2-[[4-Chloro-3-[(2R)-2-amino-3-hydroxypropoxy]-6,7-dihydro-5H-cyclopenta[c]pyridin-6-yl]methylamino]ethyl]-2-oxo-1,3-oxazolidin-3-yl]-4H-pyrido[3,2-b][1,4]oxazin-3-one]
IC50: 140 nM

N#Cc1cccc2c1CC(NCC(O)CC1CN(c3ccc4c(n3)NC(=O)CO4)C(=O)O1)C2 (stereo not drawn) [Example 238, 2-[[2-Hydroxy-3-[2-oxo-3-(3-oxo-4H-pyrido[3,2-b][1,4]oxazin-6-yl)-1,3-oxazolidin-5-yl]propyl]amino]-2,3-dihydro-1H-indene-4-carbonitrile hydrochloride]
IC50: 170 nM

CCn1cc(C(=O)O)c(=O)c2cc(F)c3c(c21)CC(CNCCC1CN(c2ccc4c(n2)NC(=O)CO4)C(=O)O1)C3 (stereo not drawn) [Example 239, 1-Ethyl-6-fluoro-4-oxo-8-[[2-[2-oxo-3-(3-oxo-4H-pyrido[3,2-b][1,4]oxazin-6-yl)-1,3-oxazolidin-5-yl]ethylamino]methyl]-8,9-dihydro-7H-cyclopenta[h]quinoline-3-carboxylic acid]
IC50: < 97.7 nM

NC1(CNCCC2CN(c3ccc4c(n3)NC(=O)CO4)C(=O)O2)Cc2cccc(Cl)c2C1 (stereo not drawn) [Example 240, 6-[5-[2-[(2-Amino-4-chloro-1,3-dihydroinden-2-yl)methylamino]ethyl]-2-oxo-1,3-oxazolidin-3-yl]-4H-pyrido[3,2-b][1,4]oxazin-3-one; formic acid]
IC50: 278 nM

Cc1ncc(F)c2c1CC(CNCCC1(CN)CN(c3ccc4c(n3)NC(=O)CO4)C(=O)O1)C2 (stereo not drawn) [Example 242, 6-[5-(Aminomethyl)-5-[2-[(4-fluoro-1-methyl-6,7-dihydro-5H-cyclopenta[c]pyridin-6-yl)methylamino]ethyl]-2-oxo-1,3-oxazolidin-3-yl]-4H-pyrido[3,2-b][1,4]oxazin-3-one]
IC50: 778 nM

N#Cc1cccc2c1CC(CNCCC1(CN)CN(c3ccc4c(n3)NC(=O)CO4)C(=O)O1)C2 (stereo not drawn) [Example 243, 2-[[2-[5-(aminomethyl)-2-oxo-3-(3-oxo-4H-pyrido[3,2-b][1,4]oxazin-6-yl)-1,3-oxazolidin-5-yl]ethylamino]methyl]-2,3-dihydro-1H-indene-4-carbonitrile]
IC50: 199 nM

COCC(N)COc1cc(F)c2c(c1)CC(CNCCC1CN(c3ccc4c(n3)NC(=O)CO4)C(=O)O1)C2 (stereo not drawn) [Example 248, 6-[5-[2-[[6-(2-amino-3-methoxypropoxy)-4-fluoro-2,3-dihydro-1H-inden-2-yl]methylamino]ethyl]-2-oxo-1,3-oxazolidin-3-yl]-4H-pyrido[3,2-b][1,4]oxazin-3-one]
IC50: < 97.7 nM

Cc1cc(OCC2(N)CC2)c(C)c2c1CC(CNCCC1CN(c3cnc4c(n3)NC(=O)CO4)C(=O)O1)C2 (stereo not drawn) [Example 253, 6-[5-[2-[[5-[(1-Aminocyclopropyl)methoxy]-4,7-dimethyl-2,3-dihydro-1H-inden-2-yl]methylamino]ethyl]-2-oxo-1,3-oxazolidin-3-yl]-4H-pyrazino[2,3-b][1,4]oxazin-3-one; formic acid]
IC50: < 97.7 nM

N#Cc1cc(OC2CCNC2)cc2c1CC(CNCCC1CN(c3ccc4c(n3)NC(=O)CO4)C(=O)O1)C2 (stereo not drawn) [Example 254, 2-[[2-[2-Oxo-3-(3-oxo-4H-pyrido[3,2-b][1,4]oxazin-6-yl)-1,3-oxazolidin-5-yl]ethylamino]methyl]-6-pyrrolidin-3-yloxy-2,3-dihydro-1H-indene-4-carbonitrile; formic acid]
IC50: 188 nM

CNC(=O)C(N)COc1cc(F)c2c(c1)CC(CNCCC1CN(c3ccc4c(n3)NC(=O)CO4)C(=O)O1)C2 (stereo not drawn) [Example 255, 2-Amino-3-[[7-fluoro-2-[[2-[2-oxo-3-(3-oxo-4H-pyrido[3,2-b][1,4]oxazin-6-yl)-1,3-oxazolidin-5-yl]ethylamino]methyl]-2,3-dihydro-1H-inden-5-yl]oxy]-N-methylpropanamide; formic acid]
IC50: 180 nM

Cc1nc(Cl)c2c(c1F)CC(CNCCC1CN(c3ccc4c(n3)NC(=O)CO4)C(=O)O1)C2 (stereo not drawn) [Example 256, 6-[5-[2-[(1-Chloro-4-fluoro-3-methyl-6,7-dihydro-5H-cyclopenta[c]pyridin-6-yl)methylamino]ethyl]-2-oxo-1,3-oxazolidin-3-yl]-4H-pyrido[3,2-b][1,4]oxazin-3-one]
IC50: < 97.7 nM

NC1(COc2cc(F)c3c(c2)CC(CN2CCC4(CC2)CN(c2cnc5c(n2)NC(=O)CO5)C(=O)O4)C3)CC1 (stereo not drawn) [Example 257, 6-[8-[[6-[(1-Aminocyclopropyl)methoxy]-4-fluoro-2,3-dihydro-1H-inden-2-yl]methyl]-2-oxo-1-oxa-3,8-diazaspiro[4.5]decan-3-yl]-4H-pyrazino[2,3-b][1,4]oxazin-3-one; formic acid]
IC50: < 97.7 nM

Cc1ncc(F)c2c1CC(CN1CCC3(CC1)CN(c1cnc4c(n1)NC(=O)CO4)C(=O)O3)C2 (stereo not drawn) [Example 258, 6-[8-[(4-Fluoro-1-methyl-6,7-dihydro-5H-cyclopenta[c]pyridin-6-yl)methyl]-2-oxo-1-oxa-3,8-diazaspiro[4.5]decan-3-yl]-4H-pyrazino[2,3-b][1,4]oxazin-3-one]
IC50: 221 nM
